pIC50: −log10 of the molar value.

In this assay the target is human NaV 1.8 (Homo sapiens, UniProt Q9Y5Y9). Briefly: E-VIPR Assay Detecting and Measuring NaV Inhibition Properties. It counts as cell-based. To be noted: HEK cells expressing a truncated form of human NaV 1.8 with full channel activity; electrical stimulation, membrane-potential FRET dyes; 30 minutes compound incubation; read-out: measured IC50 value in the E-VIPR Assay. From the text: E-VIPR Assay Detecting and Measuring NaV Inhibition Properties
Sequence of human NaV 1.8 (Q9Y5Y9 126-1722 limits assumed): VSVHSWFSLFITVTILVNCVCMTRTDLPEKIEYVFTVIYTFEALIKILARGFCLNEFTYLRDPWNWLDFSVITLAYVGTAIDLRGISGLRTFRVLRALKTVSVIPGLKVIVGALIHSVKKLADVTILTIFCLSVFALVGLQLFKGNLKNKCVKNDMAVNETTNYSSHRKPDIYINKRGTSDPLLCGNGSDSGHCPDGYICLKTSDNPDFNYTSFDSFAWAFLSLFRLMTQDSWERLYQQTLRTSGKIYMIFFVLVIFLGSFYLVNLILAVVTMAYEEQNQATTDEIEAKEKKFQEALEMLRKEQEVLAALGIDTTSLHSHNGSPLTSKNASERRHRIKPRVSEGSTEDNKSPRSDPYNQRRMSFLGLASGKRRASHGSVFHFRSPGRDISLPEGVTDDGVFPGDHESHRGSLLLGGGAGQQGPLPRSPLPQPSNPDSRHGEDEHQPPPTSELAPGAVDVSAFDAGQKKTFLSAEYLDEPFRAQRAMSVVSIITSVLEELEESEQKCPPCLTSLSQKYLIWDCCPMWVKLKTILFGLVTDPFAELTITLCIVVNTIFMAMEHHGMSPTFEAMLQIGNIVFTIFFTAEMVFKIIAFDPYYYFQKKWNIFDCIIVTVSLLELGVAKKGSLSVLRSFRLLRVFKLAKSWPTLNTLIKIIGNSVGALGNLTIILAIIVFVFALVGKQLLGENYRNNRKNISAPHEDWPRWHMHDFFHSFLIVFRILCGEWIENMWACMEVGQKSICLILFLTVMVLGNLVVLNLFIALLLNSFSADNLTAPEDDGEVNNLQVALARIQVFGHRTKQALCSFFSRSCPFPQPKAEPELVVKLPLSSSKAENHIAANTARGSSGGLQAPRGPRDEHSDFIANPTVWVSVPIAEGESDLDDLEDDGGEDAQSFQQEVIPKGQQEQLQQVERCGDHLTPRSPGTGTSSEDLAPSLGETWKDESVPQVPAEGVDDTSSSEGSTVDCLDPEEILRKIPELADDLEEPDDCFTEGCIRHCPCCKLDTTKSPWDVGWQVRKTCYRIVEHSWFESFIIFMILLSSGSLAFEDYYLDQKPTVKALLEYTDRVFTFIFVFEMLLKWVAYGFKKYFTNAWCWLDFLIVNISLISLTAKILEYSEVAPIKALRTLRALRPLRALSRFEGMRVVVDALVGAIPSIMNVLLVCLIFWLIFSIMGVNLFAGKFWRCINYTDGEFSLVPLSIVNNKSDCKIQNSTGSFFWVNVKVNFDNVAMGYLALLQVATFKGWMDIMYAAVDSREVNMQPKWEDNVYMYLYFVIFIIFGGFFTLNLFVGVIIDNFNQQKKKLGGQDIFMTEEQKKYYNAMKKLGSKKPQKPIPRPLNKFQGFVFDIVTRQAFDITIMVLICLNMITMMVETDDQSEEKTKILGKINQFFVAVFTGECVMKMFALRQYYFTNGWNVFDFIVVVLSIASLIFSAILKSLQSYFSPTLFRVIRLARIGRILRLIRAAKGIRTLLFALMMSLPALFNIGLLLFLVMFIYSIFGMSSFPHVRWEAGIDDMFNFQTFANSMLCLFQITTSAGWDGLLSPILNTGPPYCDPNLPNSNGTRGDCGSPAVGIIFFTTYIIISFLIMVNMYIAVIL
Sodium ion channels are voltage-dependent proteins that can be activated by inducing membrane voltage changes by applying electric fields. The electrical stimulation instrument and methods of use, referred to as E-VIPR, are described in International Publication No. WO 2002/008748 A3 and C.-J. Huang et al. Characterization of voltage-gated sodium channel blockers by electrical stimulation and fluorescence detection of membrane potential, 24 Nature Biotech. 439-46 (2006), both of which are incorporated by reference in their entirety. The instrument comprises a microtiter plate handler, an optical system for exciting the coumarin dye while simultaneously recording the coumarin and oxonol emissions, a waveform generator, a current- or voltage-controlled amplifier, and parallel electrode pairs that are inserted into assay plate wells. Under integrated computer control, this instrument passes user-programmed electrical stimulus protocols to cells within the wells of the microtiter plate.
16-20 hours prior to running the assay on E-VIPR, HEK cells expressing a truncated form of human NaV 1.8 with full channel activity were seeded into microtiter 384-well plates, pre-coated with matrigel, at a density of 25,000 cells per well. 2.5-5% KIR2.1 BacMam virus was added to the final cell suspension before seeding into cell plates. HEK cells were grown in Dulbecco's Modified Eagle's Medium (DMEM) supplemented with 10% FBS (Fetal Bovine Serum, qualified; Sigma #F4135), 1% NEAA (Non-Essential Amino Acids, Gibco #11140), 1% HEPES (Gibco #15630), 1% Pen-Strep (Penicillin-Streptomycin; Gibco #15140) and 5 μg/ml Blasticidin (Gibco #R210-01). Cells were expanded in 5-layer CellSTACK culture chambers or cell culture flasks with vented caps, with 90-95% humidity and 5% CO2.
Reagents and Stock Solutions:
100 mg/mL Pluronic F-127 (Sigma #P2443), in dry DMSO
Compound Plates: Corning 384-well Polypropylene Round Bottom #3656
Cell Plates: 384-well tissue culture treated plates (Greiner #781091-2B)
2.5-5% KIR 2.1 Bacmam virus (produced in-house), prepared as described in Section 3.3 of J. A. Fornwald et al., Gene Expression in Mammalian Cells Using BacMam, a Modified Baculovirus System, 1350 Methods in Molecular Biology 95-116 (2016), the entire contents of which are incorporated by reference. The concentration used can be dependent on viral titer of each batch.
5 mM DiSBAC6(3), a voltage sensitive oxonol acceptor (CAS number 169211-44-3; 5-[3-(1,3-dihexylhexahydro-4,6-dioxo-2-thioxo-5-pyrimidinyl)-2-propen-1-ylidene]-1,3-dihexyldihydro-2-thioxo-4,6(1H,5H)-pyrimidinedione), in dry DMSO. The preparation of DiSBAC6(3) is analogous to that of DiSBAC4(3) as described in Voltage Sensing by Fluorescence Resonance Energy Transfer in Single Cells, Gonzalez, J. E. and Tsien, R. Y. (1995) Biophys. J. 69, 1272-1280.
5 mM CC2-DMPE, a commercially available membrane-bound coumarin phospholipid FRET donor (ThermoFisher Scientific catalog number K1017, CAS number 393782-57-5; tetradecanoic acid, 1,1′-[(1R)-1-[8-(6-chloro-7-hydroxy-2-oxo-2H-1-benzopyran-3-yl)-3-hydroxy-3-oxido-8-oxo-2,4-dioxa-7-aza-3-phosphaoct-1-yl]-1,2-ethanediyl]ester) was prepared in dry DMSO. See also, Improved indicators of cell membrane potential that use fluorescence resonance energy transfer, Gonzalez, J. E. and Tsien, R. Y. (1997) Chem. Biol. 4, 269-277.
Voltage Assay Background Suppression Compound (VABSC-1) is prepared in H2O (89-363 mM, range used to maintain solubility)
Human Serum (HS, Millipore #S1P1-01KL, or Sigma SLBR5469V and SLBR5470V as a 50%/50% mixture, for 25% assay final concentration)
Sodium Chloride 160 mM (9.35 g/L), Potassium Chloride, 4.5 mM (0.335 g/L), Glucose 10 mM (1.8 g/L), Magnesium Chloride (Anhydrous) 1 mM (0.095 g/L), Calcium Chloride 2 mM (0.222 g/L), HEPES 10 mM (2.38 g/L) in water. […]
In the case of `CCOC(=O)c1c(C)[nH]c(-c2c(Oc3ccc(F)c(F)c3C)ncc(C(F)(F)F)c2C)c(C)c1=O` [Compound 43, ethyl 6-[2-(3,4-difluoro-2-methyl-phenoxy)-4-methyl-5-(trifluoromethyl)-3-pyridyl]-2,5-dimethyl-4-oxo-1H-pyridine-3-carboxylate], the pIC50 is 5.70 to 6.30.
Take `CCOC(=O)c1c(-c2cc3ccccc3nc2N2CCOCC2)[nH]c(C)c(OC)c1=O` [Compound 249, ethyl 5-methoxy-6-methyl-2-(2-morpholino-3-quinolyl)-4-oxo-1H-pyridine-3-carboxylate]: the pIC50 was not above 5.30.
Regarding `COc1c(Oc2cnc(C(F)(F)F)cc2-c2[nH]c(C)c(C)c(=O)c2C(=O)O)ccc(F)c1F` [Compound 280, 2-[5-(3,4-difluoro-2-methoxy-phenoxy)-2-(trifluoromethyl)-4-pyridyl]-5,6-dimethyl-4-oxo-1H-pyridine-3-carboxylic acid], the pIC50 is 5.70 to 6.30.
For `CCOC(=O)c1c(-c2cc3ccccc3nc2N2CCC(C)(C)C2)[nH]c(C)c(OC)c1=O` [Compound 238, ethyl 2-[2-(3,3-dimethylpyrrolidin-1-yl)-3-quinolyl]-5-methoxy-6-methyl-4-oxo-1H-pyridine-3-carboxylate], the negative-log IC50 (pIC50) is 5.70 to 6.30.
To `Cc1cc(=O)cc(-c2ccccc2OCC2CC2)[nH]1` [Compound 146, 2-[2-(cyclopropylmethoxy)phenyl]-6-methyl-1H-pyridin-4-one] belongs not above 5.30; to `COc1cc(F)ccc1Oc1cc(C(C)(C)C)cc(C)c1-c1cc(=O)c(C(=O)N(C)C)c(C)[nH]1` [Compound 289, 6-[4-tert-butyl-2-(4-fluoro-2-methoxy-phenoxy)-6-methyl-phenyl]-N,N,2-trimethyl-4-oxo-1H-pyridine-3-carboxamide], 5.70 to 6.30; to `Cc1cc(=O)cc(-c2cc(C(F)(F)F)cnc2N2CCCC(F)(F)CC2)[nH]1` [Compound 156, 2-[2-(4,4-difluoroazepan-1-yl)-5-(trifluoromethyl)-3-pyridyl]-6-methyl-1H-pyridin-4-one], 5.70 to 6.30.
In the case of `Cc1cc(=O)cc(-c2c(C(F)(F)F)ccnc2N2CCCC(F)(F)CC2)[nH]1` [Compound 318, 2-[2-(4,4-difluoroazepan-1-yl)-4-(trifluoromethyl)-3-pyridyl]-6-methyl-1H-pyridin-4-one], the pIC50 was not above 5.30.
As for `Cc1cc(=O)cc(-c2ccc(C(C)(C)C)cc2OCC2CC2(F)F)[nH]1` (stereo not shown) [Compound 136], the pIC50 was 5.30 to 5.70.
For the compound `Cc1c(Oc2nc3ccccc3cc2-c2cc(=O)cc[nH]2)ccc(F)c1F` [Compound 115, 2-[2-(3,4-difluoro-2-methyl-phenoxy)-3-quinolyl]-1H-pyridin-4-one], the pIC50 was 5.70 to 6.30.
`CCOC(=O)c1c(-c2cc3ccccc3nc2N2CCC[C@H](OC)C2)[nH]c(C)c(OC)c1=O` [Compound 231, ethyl 5-methoxy-2-[2-[(3S)-3-methoxy-1-piperidyl]-3-quinolyl]-6-methyl-4-oxo-1H-pyridine-3-carboxylate]: the pIC50 is 5.30 to 5.70.
On to `Cc1cc(=O)cc(-c2cc(C(F)(F)F)cnc2N2CCC(F)(F)CC2)[nH]1` [Compound 157, 2-[2-(4,4-difluoro-1-piperidyl)-5-(trifluoromethyl)-3-pyridyl]-6-methyl-1H-pyridin-4-one], for which the pIC50 is not above 5.30.
For the compound `Cc1[nH]c(-c2c(Oc3ccc(F)c(F)c3C)ncc(C(F)(F)F)c2C)cc(=O)c1-c1cn(C)c(C)n1` [Compound 162, 6-[2-(3,4-difluoro-2-methyl-phenoxy)-4-methyl-5-(trifluoromethyl)-3-pyridyl]-3-(1,2-dimethylimidazol-4-yl)-2-methyl-1H-pyridin-4-one], the pIC50 was 5.70 to 6.30.
For `Cc1cc(=O)cc(-c2cc3ccccc3nc2OCc2ccccc2)[nH]1` [Compound 105, 2-(2-benzyloxy-3-quinolyl)-6-methyl-1H-pyridin-4-one], the pIC50 was not above 5.30.
For `Cc1[nH]c(-c2ccc(C(C)(C)C)cc2OCC2CC2(F)F)cc(=O)c1C` (stereo not shown) [Compound 135, 6-[4-tert-butyl-2-[(2,2-difluorocyclopropyl)methoxy]phenyl]-2,3-dimethyl-1H-pyridin-4-one], the pIC50 is 5.70 to 6.30.
Consider `Cc1cc(=O)cc(-c2ccc(C(F)(F)F)cc2C2CCC(F)(F)CC2)[nH]1` [Compound 325, 2-[2-(4,4-difluorocyclohexyl)-4-(trifluoromethyl)phenyl]-6-methyl-1H-pyridin-4-one], for which the pIC50 was 5.70 to 6.30.
For `COC(=O)c1c(-c2cc(C(F)(F)F)ncc2N2CCCC(F)(F)CC2)[nH]c(C)c(C)c1=O` [Compound 297, methyl 2-[5-(4,4-difluoroazepan-1-yl)-2-(trifluoromethyl)-4-pyridyl]-5,6-dimethyl-4-oxo-1H-pyridine-3-carboxylate], the pIC50 was 5.30 to 5.70.
`Cc1cc(=O)cc(-c2ccc(C(F)(F)F)cc2C2=CCC(F)(F)CC2)[nH]1` [Compound 324, 2-[2-(4,4-difluorocyclohexen-1-yl)-4-(trifluoromethyl)phenyl]-6-methyl-1H-pyridin-4-one]: the pIC50 was not above 5.30.
In the case of `CO[C@@H]1CN(c2nc3ccccc3cc2-c2cc(=O)cc(C)[nH]2)C[C@@H]1C` [Compound 253, 2-[2-[(3S,4S)-3-methoxy-4-methyl-pyrrolidin-1-yl]-3-quinolyl]-6-methyl-1H-pyridin-4-one] it was 5.70 to 6.30.
As to `Cc1cc(=O)cc(-c2cc(C(F)(F)F)ncc2C2CCC(C(F)(F)F)CC2)[nH]1` (stereo not shown) [Compound 322, 2-methyl-6-[2-(trifluoromethyl)-5-[4-(trifluoromethyl)cyclohexyl]-4-pyridyl]-1H-pyridin-4-one], the pIC50 is 5.30 to 5.70.
Regarding `Cc1c(Oc2ncc(C(F)(F)F)c(C)c2-c2cc(=O)c(C(N)=O)c[nH]2)ccc(F)c1F` [Compound 310, 6-[2-(3,4-difluoro-2-methyl-phenoxy)-4-methyl-5-(trifluoromethyl)-3-pyridyl]-4-oxo-1H-pyridine-3-carboxamide], the pIC50 was 5.70 to 6.30.
For `Cc1cc(=O)cc(-c2c(C(F)(F)F)ccnc2N2CCC(F)(F)CC2)[nH]1` [Compound 319, 2-[2-(4,4-difluoro-1-piperidyl)-4-(trifluoromethyl)-3-pyridyl]-6-methyl-1H-pyridin-4-one], the pIC50 is not above 5.30.
As to `COc1cc(F)ccc1Oc1cc(C(C)(C)C)cc(C)c1-c1cc(=O)cc(C(O)CO)[nH]1` (stereo not shown) [Compound 274, 2-[4-tert-butyl-2-(4-fluoro-2-methoxy-phenoxy)-6-methyl-phenyl]-6-(1,2-dihydroxyethyl)-1H-pyridin-4-one], the pIC50 is not above 5.30.
For `COc1c(Oc2cc(C(F)(F)F)c(F)cc2-c2cc(=O)nc(C)[nH]2)ccc(F)c1F` [Compound 55, 6-[2-(3,4-difluoro-2-methoxy-phenoxy)-5-fluoro-4-(trifluoromethyl)phenyl]-2-methyl-1H-pyrimidin-4-one], the pIC50 was not above 5.30.
Turning to `CCOC(=O)c1c(-c2cc3ccccc3nc2N2C[C@@H]3CCO[C@@H]3C2)[nH]c(C)c(OC)c1=O` [Compound 228, ethyl 2-[2-[(3aS,6aS)-2,3,3a,4,6,6a-hexahydrofuro[2,3-c]pyrrol-5-yl]-3-quinolyl]-5-methoxy-6-methyl-4-oxo-1H-pyridine-3-carboxylate], the pIC50 was not above 5.30.

Values taken from US20250388543A1, “HETEROARYL COMPOUNDS FOR THE TREATMENT OF PAIN” (VERTEX PHARMACEUTICALS INCORPORATED, priority 2022, published 2025).
